Columns and labels:
HT-29 = test: Cytotoxicity against human HT-29 cells assessed as reduction in cell viability incubated for 48 hrs by MTT assay; assay type: functional, cell-based; settings: HT-29, 48 h
SW480 = test: Cytotoxicity against human SW480 cells assessed as reduction in cell viability incubated for 48 hrs by MTT assay; assay type: functional, cell-based; settings: SW480, 48 h
HCT-116 = test: Cytotoxicity against human HCT-116 cells assessed as reduction in cell viability incubated for 48 hrs by MTT assay; assay type: functional, cell-based; settings: HCT-116, 48 h
U2OS = test: Cytotoxicity against human U2OS cells assessed as reduction in cell viability incubated for 48 hrs by MTT assay; assay type: functional, cell-based
HepG2 = test: Cytotoxicity against human HepG2 cells assessed as reduction in cell viability incubated for 48 hrs by MTT assay; assay type: functional, cell-based; settings: HepG2, 48 h
MDA-MB-231 = test: Cytotoxicity against human MDA-MB-231 cells assessed as reduction in cell viability incubated for 48 hrs by MTT assay; assay type: functional, cell-based; settings: MDA-MB-231, 48 h
A549 = test: cells; settings: Homo sapiens, A549, 48 h

SMILES	IC50 (HT-29) [µM]	IC50 (SW480) [µM]	IC50 (HCT-116) [µM]	IC50 (U2OS) [µM]	IC50 (HepG2) [µM]	IC50 (MDA-MB-231) [µM]	IC50 (A549) [µM]
C=C1C(=O)O[C@H]2[C@H]1CC[C@@]1(COC(=O)c3ccc4ncccc4c3)O[C@@H]1CC[C@@]1(C)O[C@@H]21	0.94	2.4	1.8	6.43	7.13	6.61	6.69
C=C1C(=O)O[C@H]2[C@H]1CC/C(C(=O)CN1CCCN(C(=O)c3ccc4ccccc4n3)CC1)=C/CC[C@@]1(C)O[C@@H]21	4.31	3.13	4.32	10.6	5	7.44	9.68
C=C1C(=O)O[C@H]2[C@H]1C[C@H](OC(=O)c1ccc3ncccc3c1)C(C)=C1CC[C@@](C)(O)[C@@H]12	1.46	0.4	1.1	2.36	4.53	2.66	1.58
C=C1C(=O)O[C@H]2[C@H]1CC/C(COC(=O)c1ccc3nccnc3c1)=C/CC[C@@]1(C)O[C@@H]21	2.52	1.25	2.82	3.18	6.84	2.97	2.2
C=C1C(=O)O[C@H]2[C@H]1CC/C(COC(=O)c1ccc3ncc(Br)cc3c1)=C/CC[C@@]1(C)O[C@@H]21	0.79	0.38	1.21	2.51	4.5	1.89	0.92
C=C1C(=O)O[C@H]2[C@H]1CC/C(COC(=O)CCc1nc3ccccc3[nH]c1=O)=C/CC[C@@]1(C)O[C@@H]21	5.66	1.74	6.13	6.99	14.2	7.56	8.12
C=C1C(=O)O[C@H]2[C@H]1CC[C@]1(C)O[C@@H]1CC[C@@]1(C)O[C@@H]21	11.4	4.3	13.4	13	23.5	15.2	28.6
C=C1C(=O)O[C@H]2[C@H]1CC/C(COC(=O)c1ccc3ccccc3n1)=C/CC[C@@]1(C)O[C@@H]21	2.68	1.2	2.97	2.22	8.84	2.14	2.95
C=C1C(=O)O[C@H]2[C@H]1CC/C(COC(=O)c1ccc3nc(C)ccc3c1)=C/CC[C@@]1(C)O[C@@H]21	1.61	0.79	2.78	1.68	7.79	1.29	1.34
C/C1=C\CC[C@@]2(C)O[C@H]2[C@H]2OC(=O)C(CN3CCCN(C(=O)c4ccc5ccccc5n4)CC3)[C@@H]2CC1 (stereo partly drawn)	39	6.39	50	11.1	59.6	71.7	27.3
C=C1C(=O)O[C@H]2[C@H]1CC/C(C(=O)CN1CCN(C(=O)c3ccc4ccccc4n3)CC1)=C/CC[C@@]1(C)O[C@@H]21	4.83	3.3	5.27	13	7.75	8.37	14.8
C=C1C(=O)O[C@H]2[C@H]1CC/C(C(=O)Oc1ccc3nccc(Cl)c3c1)=C/CC[C@@]1(C)O[C@@H]21	1.22	0.59	1.29	2.21	4.03	2.25	2.74
CO[C@@]12[C@H](COC(N)=O)C3=C(C(=O)C(C)=C(N)C3=O)N1C[C@@H]1N[C@@H]12 [MITOMYCIN]	0.44	0.79	0.55	8.45	2.27	2.89	2.75
C=C1C(=O)O[C@H]2[C@H]1CC/C(COC(=O)c1ccc3ncncc3c1)=C/CC[C@@]1(C)O[C@@H]21	5.82	1.9	6.19	13.9	11.8	9.01	17.4
C/C1=C\CC[C@@]2(C)O[C@H]2[C@H]2OC(=O)/C(=C\c3ccc4ncccc4c3)[C@@H]2CC1	6.66	2.71	6.55	2.78	23.6	12.5	16.8
C=C1C(=O)O[C@H]2[C@H]1CC/C(COC(=O)CCn1cnc3ccccc3c1=O)=C/CC[C@@]1(C)O[C@@H]21	5.21	3.23	5.71	7.76	17.9	8.37	8.63
C=C1C(=O)O[C@H]2[C@H]1CC/C(COC(=O)c1ccc3nc(Cl)ccc3c1)=C/CC[C@@]1(C)O[C@@H]21	1.42	0.46	1.77	2.46	4.83	2.69	1.75
C=C1C(=O)O[C@H]2[C@H]1CC/C(COC(=O)c1n[nH]c(=O)c3ccccc13)=C/CC[C@@]1(C)O[C@@H]21	6.26	2.43	6.86	7.81	9.63	6.26	4.52
C=C1C(=O)O[C@H]2[C@H]1CC/C(COC(=O)c1cnnc3ccccc13)=C/CC[C@@]1(C)O[C@@H]21	4.27	1.33	3.78	4.01	12.5	3.68	2.29
C/C1=C\CC[C@@]2(C)O[C@H]2[C@H]2OC(=O)/C(=C\c3ccc4nc[nH]c(=O)c4c3)[C@@H]2CC1	28.6	34	32.9	24.6	86.7	55.1	33.5
C=C1C(=O)O[C@H]2[C@H]1CC/C(CO)=C\CC[C@@]1(C)O[C@@H]21	6.95	5.87	7.5	10.7	12	6.01	7.49
C=C1C(=O)O[C@H]2[C@H]1CC/C(C(=O)CN1CCN(C(=O)c3ccc4ccccc4n3)CC1C)=C/CC[C@@]1(C)O[C@@H]21 (stereo partly drawn)	6.34	8.64	6.89	21.7	14	8.67	14.2
C=C1C(=O)O[C@H]2[C@H]1CC/C(COC(=O)CCc1n[nH]c(=O)c3ccccc13)=C/CC[C@@]1(C)O[C@@H]21	4.11	1.45	4.51	6.03	7.22	7.92	13.5
C=C1C(=O)O[C@H]2[C@H]1CC/C(COC(=O)Cc1n[nH]c(=O)c3ccccc13)=C/CC[C@@]1(C)O[C@@H]21	2.56	2.28	2.87	8.53	8.44	5.49	5.79

Source: ChEMBL document CHEMBL4831557, “Parthenolide Derivatives as PKM2 Activators Showing Potential in Colorectal Cancer” (J Med Chem, 2021)
